Data from patent publication US20120035444A1, “INTRAVITAL SAMPLE DEVICE FOR IN VIVO DRUG SCREENING” (NATIONAL TAIWAN UNIVERSITY, priority 2008, published 2012).

Tested on: liver
Conditions: feeding for 10 days (FIG. 8)
Text: Two-photon microscopy was used to observe living organism. […] The multiphoton microscope is illustrated in FIG. 5. […] The SHG signal was collected in the backscattering geometry.
When the liver was damaged, the function of hepatocytes would also be damaged. In the present invention, CCl4 was applied to simulate the reaction of hepatocyte when the liver was toxic.

**Q.** For `ClC(Cl)(Cl)Cl` [CCl4], which “liver state after feeding CCl4” value is on record?
**A.** Its value is “fibrosis”.
